A melting point compilation (Tetko et al.; mined from patent text by program, amines drawn as free bases though some values may be those of a salt)

melting point [°C] | Structure (SMILES)
250 to 252 | O=C1CCc2cc(CN3CCN(C(=O)c4ccc(Oc5ccc(NC(=O)c6ccc(C(F)(F)F)cc6)cn5)cc4)CC3)ccc2N1
123 to 125 | OC1(c2ccc3c(c2)OCO3)CCN(CCc2ccccc2)CC1
130 | COC(=O)C=C1C(=O)N(c2ccccc2)C(=O)N1Cc1ccccc1
101 to 103 | CCCC(C)S(=O)(=O)Nc1ccc(C(=O)CN2CCN(c3ccncc3)CC2)cc1 (stereo not given)
170 | CCOC(=O)Cc1ccc(SCc2ccc(NC(C)=O)cc2C(=O)O)cc1
161 | CCCc1nc(/C=C/c2ccccc2)c(C(=O)OCC)n1Cc1cc2c(cc1Cl)OCO2
154 to 156 | COc1ccc2c(c1)c1c(n2Cc2ccccc2)CCCC1C(N)=O (stereo not given)
127 to 130 | CCC(=Cc1ccccc1)C(=O)c1ccc(OC)c(Cl)c1Cl
121 to 122 | COc1ccc(CSc2nnc(-c3ccc4c(c3)CCO4)o2)cc1F
257 to 258 | N#CC(c1ccnc(NCCc2c[nH]cn2)n1)c1nc2ccccc2s1 (stereo not given)
144 to 147 | CCC1(CCCCN2CCN(c3ccccn3)CC2)C(=O)Nc2ccc(F)cc21 (stereo not given)
95 to 97 | CCN(CC)CCC1(C(N)=O)Cc2ccccc2N(CC)c2ccccc21 (stereo not given)
215 to 216 | O=C(COc1ccc2ccccc2c1)Nc1ccc(C(=O)C(=O)O)cc1
142 to 146 | O=C1c2cc(O)ccc2OCC1Oc1ccccc1 (stereo not given)
112 to 135 | Cc1onc(-c2ccccc2)c1C(=O)NCCCN1CCN(c2ccc(F)cc2OCC(F)(F)F)CC1
100 | CCOC(=O)c1ccc(C=C2C=CN(CC)c3ccccc32)c([N+](=O)[O-])c1
149 to 150 | Cc1ccc(NC(=O)c2cccc(N3CCOCC3)c2)cc1[N+](=O)[O-]
68 to 70 | O=C(C(=O)c1ccc(F)c(CF)c1)c1ccc(OC(F)F)cc1
74 to 76 | COc1cc(Br)cc([N+](=O)[O-])c1OCc1ccccc1
170 to 172 | COc1ccccc1C(=O)c1cccc(C(=O)O)c1
58 to 59 | C[Si](C)(CC[Si](C)(C)c1ccc(C(F)(F)F)cc1)c1ccc(C(F)(F)F)cc1
160 | COC(=O)c1ccccc1Cc1cc2cc(Cl)ccc2n1S(=O)(=O)c1ccc2c(c1)C(C)(C)CO2

Further lines, the compound ahead of its results:

Structure (SMILES) | melting point [°C]
O=C1CCCC1Oc1cccc2onc(OCC3CCN(CC4(O)CCOCC4)CC3)c12 (stereo not given) | 133
CC(C)(C)c1cc(OCc2ccc(-c3nnn[nH]3)cc2)cc(C(C)(C)C)c1 | 253 to 255
O=C(O)c1cc2cc3[nH]c(=O)oc3cc2[nH]1 | 288 to 290
O=c1[nH]nc(Cc2ccc([N+](=O)[O-])cc2)o1 | 170 to 171
Cc1cc(C2=NOC(c3cc(Cl)cc(Cl)c3)(C(F)(F)F)C2)ccc1C(=O)Nc1ncc(C#N)cn1 (stereo not given) | 118 to 121
CCOC(=O)C(=O)Nc1ncc(C)s1 | 166 to 168
COC1=C(OC)C(=O)c2c(C#N)cccc2C1=O | 171 to 172
COC(=O)C1=C(C)NC(C)=C(C(=O)OC)C1c1ccccc1CC(OC)OC | 113 to 114
O=Cc1ccc(Cl)c(OCCCC(=O)N(CCO)CCCCC2CCCC2)c1[N+](=O)[O-] | 107 to 108
CCCNc1cc(NS(=O)(=O)c2ccc(N)cc2)nc(NCCC)n1 | 211 to 215
Nc1cc(=O)n(Cc2ccc(Cl)c(C(F)(F)F)c2)[nH]1 | 132
COn1nnc2cc3c(=O)n(C(C)Cn4ncnn4)nnc3cc2c1=O (stereo not given) | 227 to 231
CN1C(=O)NC(N)C1=O (stereo not given) | 122 to 125
ClCCn1cnc2c(NC3CCCCC3)nc(Cl)nc21 | 150 to 152
OCc1cc(-c2ccc(Cl)cc2)nc2ccnn12 | 185 to 186
CC1(C)OC(=O)N[C@@H]1c1ccccc1 | 149
CC(=O)OCc1nc([N+](=O)[O-])c(Br)n1C | 92 to 97
OCCCCCCCCCCCCCCCCNCCO | 80 to 81.2
